Data: the NIST ThermoML archive (doi:10.1021/acs.jced.7b00106)
Numbers after ± are expanded uncertainties.

Settings: Hot wire method

FC(F)(F)/C=C/Cl [(E)-1-chloro-3,3,3-trifluoroprop-1-ene]
Settings | thermal conductivity [W/m/K]
342.12 K, 65469 kPa, Liquid | 0.09982 ± 0.0042
342.13 K, 113 kPa, Gas | 0.01416 ± 0.0005
342.15 K, 367 kPa, Gas | 0.01454 ± 0.00052
342.2 K, 116 kPa, Gas | 0.01425 ± 0.00051
342.2 K, 377 kPa, Gas | 0.01421 ± 0.0005
342.21 K, 43755 kPa, Liquid | 0.09113 ± 0.022
342.24 K, 251 kPa, Gas | 0.01415 ± 0.0005
342.24 K, 34289 kPa, Liquid | 0.08779 ± 0.0029
342.26 K, 113 kPa, Gas | 0.01361 ± 0.00048
342.29 K, 7805 kPa, Liquid | 0.07547 ± 0.0024
342.3 K, 262 kPa, Gas | 0.01427 ± 0.0005
342.32 K, 4001 kPa, Liquid | 0.07309 ± 0.0023
342.32 K, 26065 kPa, Liquid | 0.08477 ± 0.0048
342.33 K, 176 kPa, Gas | 0.01391 ± 0.00049
342.34 K, 464 kPa, Gas | 0.0141 ± 0.00052
342.34 K, 19039 kPa, Liquid | 0.08156 ± 0.0069
342.35 K, 118 kPa, Gas | 0.01366 ± 0.00048
342.37 K, 497 kPa, Liquid | 0.07069 ± 0.0027
342.4 K, 364 kPa, Gas | 0.01446 ± 0.00051
342.43 K, 179 kPa, Gas | 0.01433 ± 0.00051
342.43 K, 7788 kPa, Liquid | 0.07522 ± 0.0025
342.45 K, 465 kPa, Gas | 0.01403 ± 0.0005
342.47 K, 113 kPa, Gas | 0.01424 ± 0.0005
342.47 K, 12801 kPa, Liquid | 0.07827 ± 0.0074
342.48 K, 4008 kPa, Liquid | 0.07289 ± 0.0031
342.49 K, 19031 kPa, Liquid | 0.08119 ± 0.0067
342.51 K, 249 kPa, Gas | 0.01404 ± 0.0005
342.52 K, 491 kPa, Liquid | 0.07043 ± 0.0027
342.54 K, 114 kPa, Gas | 0.0136 ± 0.00048
342.55 K, 117 kPa, Gas | 0.01427 ± 0.0005
342.55 K, 375 kPa, Gas | 0.01415 ± 0.0005
342.57 K, 65460 kPa, Liquid | 0.1005 ± 0.0031
342.59 K, 175 kPa, Gas | 0.01391 ± 0.00049
342.6 K, 53948 kPa, Liquid | 0.09634 ± 0.0033
342.61 K, 12792 kPa, Liquid | 0.07793 ± 0.0073
342.64 K, 119 kPa, Gas | 0.01361 ± 0.00048
342.66 K, 260 kPa, Gas | 0.01427 ± 0.0005
342.67 K, 362 kPa, Gas | 0.01441 ± 0.00051
342.68 K, 43762 kPa, Liquid | 0.09267 ± 0.0056
342.7 K, 464 kPa, Gas | 0.01406 ± 0.00052
342.72 K, 65463 kPa, Liquid | 0.09997 ± 0.003
342.73 K, 34274 kPa, Liquid | 0.08854 ± 0.0037
342.75 K, 53929 kPa, Liquid | 0.09616 ± 0.0034
342.8 K, 178 kPa, Gas | 0.01445 ± 0.00051
342.8 K, 247 kPa, Gas | 0.01402 ± 0.00049
342.8 K, 465 kPa, Gas | 0.01412 ± 0.00051
342.8 K, 7784 kPa, Liquid | 0.07528 ± 0.0026
342.84 K, 43753 kPa, Liquid | 0.09232 ± 0.0066
342.85 K, 113 kPa, Gas | 0.01425 ± 0.0005
342.85 K, 114 kPa, Gas | 0.01353 ± 0.00048
342.86 K, 4005 kPa, Liquid | 0.07287 ± 0.0026
342.89 K, 173 kPa, Gas | 0.01384 ± 0.00049
342.9 K, 34279 kPa, Liquid | 0.08837 ± 0.0028
342.91 K, 372 kPa, Gas | 0.01419 ± 0.0005
342.92 K, 488 kPa, Liquid | 0.07046 ± 0.011
342.93 K, 359 kPa, Gas | 0.01446 ± 0.00053
342.94 K, 116 kPa, Gas | 0.01437 ± 0.00051
342.95 K, 121 kPa, Gas | 0.01352 ± 0.00048
343.03 K, 258 kPa, Gas | 0.01427 ± 0.0005
343.07 K, 464 kPa, Gas | 0.01408 ± 0.0005
343.08 K, 246 kPa, Gas | 0.01404 ± 0.0005
343.12 K, 496 kPa, Liquid | 0.06933 ± 0.013
343.14 K, 26056 kPa, Liquid | 0.08389 ± 0.0026
343.17 K, 65460 kPa, Liquid | 0.09977 ± 0.0077
343.19 K, 19024 kPa, Liquid | 0.08036 ± 0.0025
343.2 K, 178 kPa, Gas | 0.01442 ± 0.00051
343.22 K, 357 kPa, Gas | 0.01443 ± 0.00051
343.23 K, 53929 kPa, Liquid | 0.09614 ± 0.0085
343.27 K, 113 kPa, Gas | 0.01431 ± 0.0005
343.3 K, 370 kPa, Gas | 0.01421 ± 0.0005
343.34 K, 43755 kPa, Liquid | 0.09204 ± 0.008
343.35 K, 117 kPa, Gas | 0.01424 ± 0.0005
343.35 K, 12789 kPa, Liquid | 0.07705 ± 0.0025
